Reference: ChEMBL document CHEMBL3885861, “Open TG-GATES”

Species: Rattus norvegicus
Experiment: Open TG-GATES - Regimen: Single
Type: toxicity, organism-based, Sprague-Dawley
Design: regimen Single, gender Male, age 6 weeks
Conditions: in vivo, po, route gavage; for gamma-GTP / ALP / AST / BUN / CRE / Ca / DBIL / GLC / IP / K / LDH / Na / PL / RALB / TBIL / TC / TG / TP / ALT: tissue Plasma; for APTT / Bas / Eos / Fbg / Hb / Ht / MCH / MCHC / MCV / Mono / Neu / PT / Plat / RBC / Ret / WBC / Lym: tissue Blood; for KIDNEY_L / KIDNEY_R / KIDNEY_TOTAL: tissue Kidney; for LIVER: tissue Liver
[1] = 300 mg/kg, 3 h, dose level Middle
[2] = 300 mg/kg, 6 h, dose level Middle
[3] = 300 mg/kg, 9 h, dose level Middle
[4] = 300 mg/kg, 24 h, dose level Middle

`O=C(O)c1cn(C2CC2)c2cc(N3CCNCC3)c(F)cc2c1=O` [CIPROFLOXACIN] showed a gamma-GTP (100 mg/kg, 24 h, dose level Low) of 1.4 IU/L, a TERMINAL_BW [1] of 184.9 g and an APTT [1] of 16.7 s. For the same compound, the Bas [1] was 0%, the Eos [1] was 0.4% and the Fbg [1] was 204.6 mg/dL. The Hb [1] was 13.2 g/dL, the Ht [1] was 39.5% and the MCH [1] was 22.8 pg. The MCHC [1] was 33.4%, the MCV [1] was 68.2 fL and the Mono [1] was 6%. It also gave a Neu [1] of 14.2%, a PT [1] of 12.4 s and a Plat [1] of 99.2 x10_4/uL. For the same compound, the RBC [1] was 579 x10_4/ul, the Ret [1] was 11.6% and the WBC [1] was 102.6 x10_2/uL. For the same compound, the KIDNEY_L [1] was 0.8 g, the KIDNEY_R [1] was 0.9 g and the KIDNEY_TOTAL [1] was 1.7 g. For the same compound, the LIVER [1] was 9 g, the ALP [1] was 905.6 IU/L and the AST [1] was 68.2 IU/L. The BUN [1] was 11.6 mg/dL, the CRE [1] was 0.5 mg/dL and the Ca [1] was 11 mg/dL. For the same compound, the DBIL [1] was 0.006 mg/dL, the GLC [1] was 183.6 mg/dL and the IP [1] was 9.9 mg/dL. For the same compound, the K [1] was 4.7 meq/L, the LDH [1] was 78.6 IU/L and the Na [1] was 138.8 meq/L. The PL [1] was 145.6 mg/dL, the RALB [1] was 3.9 g/dL and the TBIL [1] was 0.4 mg/dL. It also gave a TC [1] of 84 mg/dL, a TG [1] of 43.6 mg/dL and a TP [1] of 5.5 g/dL. For the same compound, the gamma-GTP [1] was 1 IU/L, the TERMINAL_BW [2] was 179.8 g and the Bas [2] was 0%. The Eos [2] was 1%, the Fbg [2] was 208.2 mg/dL and the Hb [2] was 12.8 g/dL. It also gave an MCH [2] of 22.1 pg, an MCHC [2] of 33% and an MCV [2] of 67.1 fL. The Mono [2] was 8%, the PT [2] was 12.4 s and the Plat [2] was 101.5 x10_4/uL. It also gave an RBC [2] of 579.8 x10_4/ul, a Ret [2] of 10.5% and a WBC [2] of 103.6 x10_2/uL. The KIDNEY_L [2] was 0.9 g, the KIDNEY_R [2] was 0.8 g and the KIDNEY_TOTAL [2] was 1.7 g. For the same compound, the LIVER [2] was 8.1 g, the ALP [2] was 804.2 IU/L and the ALT [2] was 35.2 IU/L. The BUN [2] was 11 mg/dL, the CRE [2] was 0.5 mg/dL and the Ca [2] was 11.6 mg/dL. For the same compound, the DBIL [2] was 0.038 mg/dL, the GLC [2] was 175.2 mg/dL and the IP [2] was 10.3 mg/dL. It also gave a K [2] of 5.1 meq/L, an LDH [2] of 82.2 IU/L and a Na [2] of 138 meq/L. It also gave a PL [2] of 131.8 mg/dL, an RALB [2] of 3.8 g/dL and a TBIL [2] of 0.4 mg/dL. It also gave a TC [2] of 82.2 mg/dL, a TG [2] of 36.2 mg/dL and a TP [2] of 5.6 g/dL. It also gave a gamma-GTP [2] of 1.4 IU/L, a TERMINAL_BW [3] of 176.2 g and an APTT [3] of 16.9 s. The Bas [3] was 0%, the Eos [3] was 0.8% and the Fbg [3] was 220.4 mg/dL. For the same compound, the Hb [3] was 13.2 g/dL, the Ht [3] was 39.7% and the Lym [3] was 81%. The MCV [3] was 67.5 fL, the Mono [3] was 5.2% and the Neu [3] was 13.4%. The PT [3] was 11.5 s, the Plat [3] was 101.9 x10_4/uL and the RBC [3] was 588.6 x10_4/ul. It also gave a Ret [3] of 9.9%, a WBC [3] of 105.6 x10_2/uL and a KIDNEY_L [3] of 0.8 g. For the same compound, the KIDNEY_R [3] was 0.8 g, the KIDNEY_TOTAL [3] was 1.7 g and the LIVER [3] was 7.2 g. For the same compound, the ALP [3] was 927.2 IU/L, the ALT [3] was 33 IU/L and the AST [3] was 67.4 IU/L. For the same compound, the BUN [3] was 10.2 mg/dL, the CRE [3] was 0.5 mg/dL and the DBIL [3] was 0.082 mg/dL. The GLC [3] was 191.4 mg/dL, the IP [3] was 10.9 mg/dL and the K [3] was 5 meq/L. The LDH [3] was 79.8 IU/L, the Na [3] was 139.2 meq/L and the PL [3] was 120.4 mg/dL. For the same compound, the RALB [3] was 3.9 g/dL, the TBIL [3] was 0.3 mg/dL and the TC [3] was 72.8 mg/dL. The TP [3] was 5.6 g/dL, the gamma-GTP [3] was 1.4 IU/L and the TERMINAL_BW [4] was 194.3 g. For the same compound, the Bas [4] was 0%, the Eos [4] was 1% and the Fbg [4] was 214.4 mg/dL. For the same compound, the Hb [4] was 12.9 g/dL, the Lym [4] was 77.2% and the MCH [4] was 21.4 pg. For the same compound, the MCHC [4] was 33.1%, the MCV [4] was 64.8 fL and the Mono [4] was 7%. It also gave a PT [4] of 12.4 s, a Plat [4] of 106.2 x10_4/uL and an RBC [4] of 600.4 x10_4/ul. The Ret [4] was 9.4%, the WBC [4] was 96.1 x10_2/uL and the KIDNEY_L [4] was 0.9 g. For the same compound, the KIDNEY_R [4] was 0.9 g, the KIDNEY_TOTAL [4] was 1.8 g and the LIVER [4] was 8.5 g. It also gave an ALP [4] of 843 IU/L, an ALT [4] of 37.8 IU/L and an AST [4] of 71.8 IU/L. It also gave a BUN [4] of 17.6 mg/dL, a CRE [4] of 0.5 mg/dL and a Ca [4] of 11.3 mg/dL. For the same compound, the DBIL [4] was 0.058 mg/dL, the GLC [4] was 193 mg/dL and the IP [4] was 9.2 mg/dL. The K [4] was 4.7 meq/L, the LDH [4] was 93.4 IU/L and the Na [4] was 140.2 meq/L. The PL [4] was 153.2 mg/dL, the RALB [4] was 3.9 g/dL and the TBIL [4] was 0.3 mg/dL. The TC [4] was 95.4 mg/dL, the TG [4] was 49 mg/dL and the TP [4] was 5.9 g/dL. The gamma-GTP [4] was 1.8 IU/L.
